Source: patent US20240174692A1, “PYRIMIDINE AROMATIC RING COMPOUNDS” (Medshine Discovery Inc., priority 2021, published 2024)

Key:
plasma protein [1] = experiment: Plasma protein binding (PPB), equilibrium dialysis, D plasma; assay type: in vitro ADME, dog; details: 2 μM, 4 hr dialysis
Experimental: (§1) Assay procedure: 995 μL of blank plasma of various genera were weighed, and 5 μL of assay compound working solution (400 μM) or warfarin working solution (400 μM) was added so that the final concentrations of the assay compound and warfarin in plasma sample were each 2 μM. The samples were mixed thoroughly. The final concentration of DMSO (the organic phase) was 0.5%. 50 μL of the plasma samples of the assay compound and warfarin were pipetted to a sample receiving plate (in triplicate), and the corresponding volume of corresponding blank plasma or buffer was added immediately, so that the final volume in each sample well was 100 μL, wherein the volume ratio of plasma:dialysis buffer was 1:1. 500 μL of stop solution was then added to these samples. These samples were used as T0 samples for determination of recovery and stability. […] All samples were subjected to protein precipitation, and then analyzed by LC/MS/MS. Bound rate and recovery rate of protein were calculated using the following formulae: % Unbound=100*F/T % Bound=100−% Unbound, % Recovery=100*(F+T)/T0 (wherein F is the peak area ratio of the compound in the dialysate after 4 h of dialysis; T is the peak area ratio of the compound in the plasma after 4 h of dialysis; T0 is the peak area ratio of the compound in the plasma sample at time zero).

plasma protein [2] = experiment: Plasma protein binding (PPB), equilibrium dialysis, C plasma; assay type: in vitro ADME, monkey; details: 2 μM, 4 hr dialysis
Experimental: as §1

p-ERK in GP2D cells = experiment: Assay of p-ERK inhibition in GP2D cells (HTRF); assay type: cell-based; details: Homo sapiens, 1 hour incubation
Experimental: 2. Assay Process • 1) GP2D cells were inoculated in a transparent 96-well cell culture plate, and each well contained 80 μL of cell suspension and 8000 cells. The cell plate was inoculated in a carbon dioxide incubator at 37° C. overnight; • 2) 2 μL of the compound was weighed and added to 78 μL of the cell medium. After the mixture was mixed thoroughly, 20 μL of the solution of compound was weighed and added to the corresponding well of the cell plate. The cell plate was placed back to the carbon dioxide incubator and incubated for another 1 hour; • 3) After completion of the incubation, the cell supernatant was discarded. 50 μL of 1× cell lysate was added to each well. The mixture was incubated with shaking at room temperature for 30 minutes; • 4) Phospho-ERK1/2 Eu Cryptate antibody and Phospho-ERK1/2 d2 antibody were diluted 20-fold with detection buffer; • 5) 16 μL of cell lysate supernatant was weighed and added into each well of a new 384 white microwell plate, and then 2 μL of the diluted solution of Phospho-ERK1/2 Eu Cryptate antibody and 2 μL of the diluted solution of Phospho-ERK1/2 d2 antibody dilution were added. The mixture was incubated at room temperature for at least 4 hours; • 6) After completion of the incubation, HTRF was read with multi-label analyzer: excitation: 320 nm, emission: 615 nm, 665 nm; • 7). IC50 of the compounds to be assayed was calculated.

plasma protein [3] = experiment: Plasma protein binding (PPB), equilibrium dialysis, M plasma; assay type: in vitro ADME, mouse; details: 2 μM, 4 hr dialysis
Experimental: as §1

[4] = target: KRAS^G12D binding to c-Raf (Homo sapiens (Human), UniProt P01116, G12D); experiment: SOS1-mediated binding of KRAS^G12D to effector protein c-Raf (TR-FRET); assay type: biochemical
Sequence of KRAS^G12D binding to c-Raf (P01116-2 other isoform, or with tags, fused parts or gaps G12D): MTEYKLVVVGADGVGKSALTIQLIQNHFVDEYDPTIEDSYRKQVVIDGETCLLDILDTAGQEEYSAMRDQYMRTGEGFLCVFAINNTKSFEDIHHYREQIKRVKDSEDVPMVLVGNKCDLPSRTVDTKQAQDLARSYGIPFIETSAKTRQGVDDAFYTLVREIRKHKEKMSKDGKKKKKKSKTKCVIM

[5] = Pharmacokinetic evaluation of compounds in rats; assay type: in vivo; details: rat, plasma, SD rats
Experimental: Purpose of assay: To assay the pharmacokinetic data of the compounds in SD rats in vivo.
(§2) Compounds were mixed with vehicle 5% DMSO/95% (10% HP-β-CD in water), and the mixture was vortexed and sonicated to give a clear solution of 0.3 mg/mL. The candidate compound solutions were administered intravenously. Whole blood was collected for a certain period of time to prepare plasma. The drug concentration was analyzed by LC-MS/MS method, and pharmacokinetic parameters were calculated.
as §2, with “a” for “a clear”, “7” for “0.3”, “orally.” for “intravenously.”

C#Cc1c(F)ccc2cc(N)cc(-c3ccc4c(N5CC6CCC(C5)N6)nc(OC[C@@]56CCCN5C[C@H](F)C6)nc4c3F)c12 [Compound 014]
Unbound PPB D (plasma protein [1]): 3.0%
Unbound PPB C (plasma protein [2]): 2.8%
IC50 (p-ERK in GP2D cells): 0.43 nM
Unbound PPB M (plasma protein [3]): 4.5%
IC50 [4]: 12 nM
AUC(0-inf) ([5]; IV, 1.56 mg/kg): 0.15 µM·h
C0 ([5]; IV, 1.56 mg/kg): 971 nM
Vd ([5]; IV, 1.56 mg/kg): 5.89 L/kg
clearance ([5]; IV, 1.56 mg/kg): 271 mL/min/kg
half-life ([5]; IV, 1.56 mg/kg): 0.56 h
AUC(0-inf) ([5]; PO, 31.7 mg/kg): 0.427 µM·h
Cmax ([5]; PO, 31.7 mg/kg): 182 nM
bioavailability ([5]; PO, 31.7 mg/kg): 12.5%
half-life ([5]; PO, 31.7 mg/kg): 6.8 h
